# Reference: article PMC6155649 (Molecules : A Journal of Synthetic Chemistry and Natural …, 2017)
# How the values were obtained:
# [1] = test system: human lung MRC-5 fibroblasts; test: cytotoxicity, Alamar Blue (resazurin) assay; details: human MRC-5 fibroblasts, 3 days incubation
# Method: All compounds were tested for cytotoxicity on human lung MRC-5 fibroblasts using the Alamar Blue assay (Table 1 and Table 2).
# MRC-5SV2 cells are cultured in Earls MEM +5% FCSi. […] After 3 days incubation, cell viability is assessed fluorimetrically after addition of resazurin and fluorescence is measured (λex 550 nm, λem 590 nm). The results are expressed as % reduction in cell growth/viability compared to untreated control wells and CC50 is determined.
# [2] = observation of precipitation in DMSO; format: physicochemical; details: table footnote *
# [3] = absorption spectrophotometric titrations versus pH (pKa)
# Text: The HClO4 and NaOH solutions were freshly prepared just before use and titrated with sodium tetraborate decahydrate (B4Na2O7·10H2O, puriss, p.a, Fluka) and potassium hydrogen phthalate (C8H5KO3, Fluka, puriss, p.a.), respectively, using methyl orange (RAL) and phenolphthalein (Prolabo, purum) as the indicators. The GLEE program was applied for the glass electrode calibration (standard electrode potential E0/mV and slope of the electrode/mV pH^−1) and to check carbonate levels of the NaOH solutions used (<5%). The cell was thermostated at 25.0 ± 0.2 °C by the flow of a Lauda E200 thermostat. A stream of argon, pre-saturated with water vapour, was passed over the surface of the solution.
# The spectrophotometric data were analyzed with the Specfit program which adjusts the absorptivities and the stability constants of the species formed at equilibrium. Specfit uses factor analysis to reduce the absorbance matrix and to extract the eigenvalues prior to the multiwavelength fit of the reduced data set according to the Marquardt algorithm.
# P. falciparum Dd2 = test: SYBRgreen growth inhibition assay; format: cell-based; details: Plasmodium falciparum; P. falciparum Dd2, SYBRgreen method, 72 h; read-out: IC50 (nM) ± SD (n)
# Method: The protocols are described in the experimental section. Two protocols to measure the growth inhibition were used: the tritiated hypoxanthine incorporation method and the SYBRgreen method. This was due to the fact that the radioactive assay was abandoned in the laboratory due to cost issues related to radioactive waste disposal. […] All data are mean values from one to four independent experiments, each consisting of eight drug concentrations in duplicate.
# Parasite replication was assessed by fluorescent SYBRgreen staining of parasitic DNA [60] as previously described. IC50 values were calculated using SigmaPlot.
smiles,measurement,setting,value
"CC1=C(Cc2cccc(N)c2)C(=O)c2ccccc2C1=O [Compound 17, 2-(3-Aminobenzyl)-3-methylnaphthalene-1,4-dione]",Tox/MRC-5,[1],>64.0 µM
same,behaviour in DMSO,[2],Precipitates in DMSO
same,[LH+]pH5/[LH+]pH7.4,"[3]; ratio of protonated species at pH 5 and 7.4, Water, I = 0.1 M NaClO4, T = 25 °C",209.6
same,pKa,[3]; water with 0.1 M NaClO4,4.3 ± 0.02
same,IC50,P. falciparum Dd2,1200 ± 1650 nM
